We go through 22 compounds from US20250319056A1, “METHODS FOR TREATING CANCER” (THE TRUSTEES OF INDIANA UNIVERSITY, priority 2024, published 2025).

One may read the EC50 as the concentration needed to bring the measured effect to its halfway point. The term CC50 denotes the concentration at which the toxic effect on the cells reaches its halfway point.

The structures appear in SMILES notation. Like-named read-outs stand apart in the source and are kept apart here. Some results are limits rather than exact numbers.

One series has as its system DLD-1 cells. Put plainly: AlamarBlue cell viability assay, DLD-1 colon cancer cells. In kind it is cell-based. Conditions: Homo sapiens, 48 h with compound, ^BP = curve baseline plateaued between ~10-20%, read-out: Human Cell Viability EC50 Colon Cancer (DLD1).
For the next series, the system named is HT-29 cells. Put plainly: AlamarBlue cell viability assay, HT-29 colon cancer cells. In kind it is cell-based. As to conditions: Homo sapiens, 48 h with compound, ^BP = curve baseline plateaued between ~10-20%. In general terms: Alamar Blue is a resazurin reagent that responds to reducing activity.
For another series, the target named is T1, mHSP60/10 (Homo sapiens, UniProt P10809).
T1 construct: Processed human HSP60 (mHSP60—that would be in mitochondria) was expressed in Rosetta™ 2 (DE3) E. coli; octa-Histidine tag (TEV-cleavable) (N, cleaved yes); made in house; host or cells: E. coli Rosetta 2 (DE3) for mHSP60; Rosetta 2 (DE3) pLysS for HSP10
Kind of series: mHSP60/10-mediated dMDH refolding assay. In kind it is biochemical.

A further series concerns the target T2, GroEL/ES (Escherichia coli, UniProt P0A6F5).
T2 construct: made in house; host or cells: NEB 5-alpha E. coli for GroEL; E. coli BL21 (DE3) for GroES
Kind of series: GroEL/ES-dMDH refolding assay. In kind it is biochemical, E. coli.

The nature of series [1]: AlamarBlue cell viability assay, non-cancerous intestine FHs-74Int cells. As to conditions: human, FHs-74Int non-cancerous intestine cells, Human Cell Viability CC50 Intestine (FHs 74Int), non-cancerous intestine cells, AlamarBlue, 48 h.
The nature of series [2]: AlamarBlue cell viability assay, non-cancerous colon FHC cells. Conditions: human, FHC non-cancerous colon cells, Human Cell Viability CC50 Colon (FHC), non-cancerous colon cells, AlamarBlue, 48 h.
For the next series, the system named is HCT-116 cells. Kind of series: AlamarBlue cell viability assay, HCT-116 colon cancer cells. In kind it is cell-based, human. Conditions: for Average Selectivity Index: CC50 non-cancer cells (FHC, FHs 74Int) compared to EC50 HCT-116; for EC50: read-out: Human Cell Viability EC50 Colon Cancer (HCT 116).
The mark [3] stands for this setting: denatured malate dehydrogenase client, read-out: IC50 mHSP60/10-dMDH refolding.
Setting [4] is: Homo sapiens, HCT-116, 48 h, AlamarBlue, 48 h with compound.

T2 sequence (P0A6F5 2-548): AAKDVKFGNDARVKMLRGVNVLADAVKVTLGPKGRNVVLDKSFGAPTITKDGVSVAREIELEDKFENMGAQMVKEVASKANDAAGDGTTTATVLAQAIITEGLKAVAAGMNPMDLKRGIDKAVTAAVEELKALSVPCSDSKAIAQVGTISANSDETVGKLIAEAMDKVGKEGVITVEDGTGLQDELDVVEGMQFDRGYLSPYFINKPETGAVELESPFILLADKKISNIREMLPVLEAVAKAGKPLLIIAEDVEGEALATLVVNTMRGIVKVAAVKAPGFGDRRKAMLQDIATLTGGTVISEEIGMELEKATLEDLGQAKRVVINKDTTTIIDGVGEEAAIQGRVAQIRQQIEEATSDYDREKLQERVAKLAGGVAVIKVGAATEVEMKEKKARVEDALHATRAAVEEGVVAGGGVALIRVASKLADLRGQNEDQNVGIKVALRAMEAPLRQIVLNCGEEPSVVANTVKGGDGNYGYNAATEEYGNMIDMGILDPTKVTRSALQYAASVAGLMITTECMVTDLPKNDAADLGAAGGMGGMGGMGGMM
T1 sequence (P10809 27-573): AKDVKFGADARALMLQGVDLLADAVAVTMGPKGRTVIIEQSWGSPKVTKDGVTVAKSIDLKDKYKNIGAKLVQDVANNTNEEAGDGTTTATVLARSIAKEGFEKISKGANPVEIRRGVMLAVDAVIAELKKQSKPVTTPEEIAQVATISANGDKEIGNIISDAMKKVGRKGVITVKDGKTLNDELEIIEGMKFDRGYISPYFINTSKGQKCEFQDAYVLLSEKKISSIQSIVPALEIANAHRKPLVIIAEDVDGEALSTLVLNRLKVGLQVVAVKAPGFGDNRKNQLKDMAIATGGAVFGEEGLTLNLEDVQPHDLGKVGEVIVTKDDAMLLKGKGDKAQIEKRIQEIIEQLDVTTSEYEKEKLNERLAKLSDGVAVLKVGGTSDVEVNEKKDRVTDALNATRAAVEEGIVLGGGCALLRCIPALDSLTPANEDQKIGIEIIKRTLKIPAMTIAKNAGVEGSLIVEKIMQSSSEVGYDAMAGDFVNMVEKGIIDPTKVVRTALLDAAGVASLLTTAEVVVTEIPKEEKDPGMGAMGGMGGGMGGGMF

For `COc1ccc(-c2ccc3cc(C(=O)O)ccc3c2)cc1C12CC3CC(CC(C3)C1)C2` [Compound 25, Adapalene, reference compound], the concentration giving a half-maximal response (EC50) in the series with DLD-1 cells came to 7.9 µM; with HT-29 cells it was 5.3 µM; in the series with HCT-116 cells (setting [4]), 5.8 µM. The IC50 at mHSP60/10 (setting [3]) and against GroEL/ES was 0.8 to 9 µM throughout. Moreover, the cytotoxic concentration (CC50) at 48 h in series [1] amounted to 18.5 µM; in series [2], 43.7 µM. For the same compound, in the series with HCT-116 cells, the “Average Selectivity Index” value is 5.4.
`Oc1c(Cl)cc(Cl)c(Cl)c1Cc1c(O)c(Cl)cc(Cl)c1Cl` [Compound 32, Hexachlorophene, reference compound]: the IC50 against mHSP60/10 and against GroEL/ES was 0.8 to 9 µM in each case. The concentration for a half-maximal effect (EC50) in the series with HCT-116 cells (Homo sapiens, HCT-116, 48 h) is 4.6 µM.
With `CN(C)c1ccc(C(=C2C=CC(=[N+](C)C)C=C2)c2ccc(N(C)C)cc2)cc1` [Compound 56, Crystal Violet, reference compound], the EC50 in the series with DLD-1 cells came out at 0.2 µM; in the series on HT-29 cells, 0.1 µM; with HCT-116 cells (AlamarBlue, 48 h with compound) it was 0.5 µM; with HCT-116 cells (setting [4]), 0.54 µM. Also, the IC50 on mHSP60/10 (setting [3]) and at GroEL/ES was 0.8 to 9 µM in each case. Besides, the results for the 50% cytotoxic concentration (CC50) at 48 h in series [1] and in [2] were 1.6 µM and 8.6 µM, respectively. In the series on HCT-116 cells, the “Average Selectivity Index” value came out at 9.4.
Consider `CCCCCOc1ccc(/C=C2\Oc3c(ccc(O)c3O)C2=O)c(O)c1` [Compound 86], for which the values for the EC50 in the series on DLD-1 cells, in the series on HT-29 cells and in the series on HCT-116 cells (setting [4]) were 23 µM, 5.9 µM and 12.5 µM, respectively. Also, the IC50 on mHSP60/10 (setting [3]) and against GroEL/ES was 0.8 to 9 µM each time. Moreover, the 50% cytotoxic concentration (CC50) at 48 h in series [1] and in series [2] was more than 100 µM throughout. In addition, the “Average Selectivity Index” value in the series with HCT-116 cells is 8.0.
With `Oc1cccc(C(Nc2nccs2)c2ccc3cccnc3c2O)c1` (centres unmarked) [Compound 90], the 50% effective concentration (EC50) in the series on DLD-1 cells was found to be 15 µM; with HT-29 cells it was 8.3 µM; in the series on HCT-116 cells (setting [4]), 2.5 µM. In addition, the IC50 on mHSP60/10 (setting [3]) and at GroEL/ES was 0.8 to 9 µM each time. Besides, the 50% cytotoxic concentration (CC50) at 48 h in series [1] turned out to be 64.6 µM; in series [2] it was 66.6 µM. Further, the “Average Selectivity Index” value with HCT-116 cells is reported as 26.2.
With `O=C(N/N=C/c1ccc(O)c2ncccc12)c1ccccc1` [Compound 137], the figures for the EC50 with DLD-1 cells, with HT-29 cells and with HCT-116 cells (setting [4]) were 2.8 µM, 2.5 µM and 6.1 µM, respectively. The 50% cytotoxic concentration (CC50) at 48 h in series [1] turned out to be 57 µM; in series [2], 74 µM. For the same compound, in the series with HCT-116 cells, the “Average Selectivity Index” value was 11.
In the case of `O=C(N/N=C/c1ccc(O)c2ncccc12)c1cccc2ccccc12` [Compound 141], the EC50 was 1.6 µM with DLD-1 cells, 1.5 µM in the series on HT-29 cells and 4.1 µM in the series with HCT-116 cells (setting [4]). The CC50 at 48 h in [1] was 60 µM; in [2] it was 46 µM. In the series on HCT-116 cells, the “Average Selectivity Index” value is 13.
For the compound `O=C(N/N=C/c1ccc(O)c2ncccc12)c1ccccc1Oc1ccccc1` [Compound 142], the EC50 in the series with DLD-1 cells amounted to 1.6 µM; in the series on HT-29 cells it was 3.7 µM; in the series on HCT-116 cells (setting [4]), 6.3 µM. Moreover, the results for the CC50 at 48 h in series [1] and in series [2] were 87 µM and 71 µM, respectively. Moreover, the “Average Selectivity Index” value in the series on HCT-116 cells is 13.
As to `CCN(CC)S(=O)(=O)c1cccc(C(=O)N/N=C/c2ccc(O)c3ncccc23)c1` [Compound 144], the figures for the 50% effective concentration (EC50) with DLD-1 cells, in the series on HT-29 cells and in the series on HCT-116 cells (setting [4]) were 1.3 µM, 4.4 µM and 4.9 µM, respectively. Further, the 50% cytotoxic concentration (CC50) at 48 h in [1] was found to be 59 µM; in [2], 34 µM. Further, the “Average Selectivity Index” value in the series on HCT-116 cells is 9.5.
With `O=C(N/N=C/c1ccc(O)c2ncccc12)c1ccc(NS(=O)(=O)c2cccs2)cc1` [Compound 145], the EC50 in the series with DLD-1 cells came to 5.7 µM; with HT-29 cells, 2.9 µM; with HCT-116 cells (setting [4]) it was 2.4 µM. Further, the figures for the 50% cytotoxic concentration (CC50) at 48 h in [1] and in series [2] were 6.1 µM and 24 µM, respectively. Also, the “Average Selectivity Index” value in the series on HCT-116 cells turned out to be 6.2.
As for `O=C(N/N=C/c1ccc(O)c2ncccc12)c1ccc(NS(=O)(=O)c2ccc(Br)cc2)cc1` [Compound 146], the EC50 was found to be 6 µM with DLD-1 cells, 1.4 µM with HT-29 cells and 5.2 µM with HCT-116 cells (setting [4]). Besides, the 50% cytotoxic concentration (CC50) at 48 h came to 91 µM in [1] and 59 µM in series [2]. Moreover, the “Average Selectivity Index” value in the series with HCT-116 cells is 14.
Consider `COc1ccc(C(=O)N/N=C/c2ccc(O)c3ccccc23)cc1` [Compound 148], for which the CC50 with FHs-74Int cells and in the series with FHC cells was more than 100 µM in each case.
For `O=C(N/N=C/c1ccc(O)c2ccccc12)c1ccccc1` [Compound 149], the CC50 with FHs-74Int cells and in the series on FHC cells was more than 100 µM throughout.
Regarding `COc1ccc(C(=O)N/N=C/c2cccc3ncccc23)cc1` [Compound 150], the half-maximal cytotoxic concentration (CC50) in the series on FHs-74Int cells and in the series with FHC cells was more than 100 µM throughout.
For `O=C(N/N=C/c1cccc2ncccc12)c1ccccc1` [Compound 151], the CC50 in the series on FHs-74Int cells and in the series on FHC cells was more than 100 µM each time.
As to `COc1ccc(C(=O)N/N=C/c2cccc3ccccc23)cc1` [Compound 152], the CC50 in the series on FHs-74Int cells and in the series with FHC cells was more than 100 µM each time.
As to `O=C(N/N=C/c1cccc2ccccc12)c1ccccc1` [Compound 153], the cytotoxic concentration (CC50) in the series with FHs-74Int cells is more than 100 µM; with FHC cells it was not below 100 µM.
For `COc1ccc(C(=O)N/N=C/c2ccc(O)cc2)cc1` [Compound 154], in that order: more than 100 µM and more than 100 µM.
In the same order, the values of `O=C(N/N=C/c1ccc(O)cc1)c1ccccc1` [Compound 155] are more than 100 µM and more than 100 µM.
In the same order, the values of `COc1ccc(C(=O)N/N=C/c2ccccc2)cc1` [Compound 156] are more than 100 µM and more than 100 µM.
Take `O=C(N/N=C/c1ccccc1)c1ccccc1` [Compound 157]: the cytotoxic concentration (CC50) in the series with FHs-74Int cells and with FHC cells was more than 100 µM in each case.
In the case of `O=C(N/N=C/c1ccc([N+](=O)[O-])o1)c1ccc(O)cc1` [Nifuroxazide (Nfz), Nifuroxazide, reference compound], the EC50 in the series with DLD-1 cells was found to be 1.5 µM; in the series on HT-29 cells it was 3.5 µM; in the series on HCT-116 cells (setting [4]), 8.3 µM. The CC50 at 48 h is 62 µM in series [1] and 66 µM in series [2]. Further, the “Average Selectivity Index” value in the series with HCT-116 cells was 7.7.
